{"source": "patent US10660967B2", "about": "“Curcumin conjugates and methods of use thereof” (priority 2016, dated 2020)", "key": {"[1]": {"tested_on": "carrageenan induced paw edema", "test": "Anti-inflammatory activity: acute carrageenan induced paw edema in rats", "type": "in vivo, Wister rats", "details": "at 4 h effect; 10 mg kg^−1 indomethacin mol equivalent", "how_it_was_run": "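Wistar rats (120–150 g, n=6/group) received subplantar 1% carrageenan in the right hind paw, and DMSO-vehicle animals served as controls. Results are given as % inhibition of edema thickness versus control.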"}, "[2]": {"tested_on": "PHA-stimulated splenocytes", "test": "Proliferative response of PHA-stimulated splenocytes (MTT assay)", "type": "cell-based", "details": "PHA 5 μg/ml, 72 hr; compounds at 5 μM (method says 10 μM); ratio of O.D. versus vehicle control", "how_it_was_run": "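Freshly prepared splenocytes (1×10^6 cells/well) were cultured for 72 h at 37° C with compound at 10 μM final, with or without PHA (5 μg/ml). Viability was read by MTT (4 h), with absorbance at 570 nm against 690 nm reference. Stimulation index is the OD ratio of treated versus vehicle cultures.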"}, "[3]": {"tested_on": "HCT116 (colon) carcinoma cell line", "test": "Anti-tumor properties, MTT", "type": "cell-based", "details": "Homo sapiens, HCT-116", "how_it_was_run": "(§1)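 Cells seeded at 10×10^3 per well for 24 h, then exposed to compound in serum-free medium (final up to 100 μM, 0.5% DMSO vehicle) for 72 h in triplicate. Viability by MTT reduction (4 h, SDS solubilised), absorbance 595 nm/ref 620 nm; IC50 from survival curves.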"}, "[4]": {"tested_on": "HepG2 (hepatocellular) carcinoma cell line", "test": "Anti-tumor properties, MTT", "type": "cell-based", "details": "Homo sapiens", "how_it_was_run": "as §1"}, "[5]": {"tested_on": "MCF7 (breast) carcinoma cell line", "test": "Anti-tumor properties, MTT", "type": "cell-based", "details": "Homo sapiens", "how_it_was_run": "as §1"}, "[6]": {"tested_on": "Streptococcus pyogenes ATCC19615", "test": "Antimicrobial MIC, agar dilution"}, "[7]": {"tested_on": "Pseudomonas aeruginosa ATCC27853", "test": "Antimicrobial MIC, agar dilution"}, "[8]": {"tested_on": "Candida albicans (local isolate)", "test": "Antimicrobial MIC, agar dilution", "details": "Candida albicans, read-out: Minimum inhibitory concentration (MIC)"}, "[9]": {"details": "ATCC19615, 18 h, read-out: Minimum inhibitory concentration (MIC)"}, "[10]": {"details": "ATCC19615, read-out: Minimum inhibitory concentration (MIC)"}, "[11]": {"details": "ATCC27853, 18 h, read-out: Minimum inhibitory concentration (MIC)"}, "[12]": {"details": "ATCC27853, read-out: Minimum inhibitory concentration (MIC)"}}, "note": "Like-named read-outs stand apart in the source and are kept apart here.", "data": [{"smiles": "COc1cc(/C=C/C(=O)CC(=O)/C=C/c2ccc(OC(=O)C(C)NC(=O)OCc3ccccc3)c(OC)c2)ccc1OC(=O)C(C)NC(=O)OCc1ccccc1", "note": "(racemic) [Cbz-DL-Ala-Cur, ((1E,6E)-3,5-dioxohepta-1,6-diene-1,7-diyl)bis(2-methoxy-4,1-phenylene) bis(2-(((benzyloxy)carbonyl)amino)propanoate)]", "values": [{"measurement": "Potency (% inhibition of edema relative to that of indomethacin reference standard)", "setting": "[1]", "result": 115}, {"measurement": "Stimulation Index (average ± SD)", "setting": "[2]", "result": "1.18 ± 0.09"}, {"measurement": "activity at 100 µM", "setting": "[3]; HCT116, 100 μM, 72 h, read-out: Percentage growth of tumor cell lines treated with the tested compounds (±SD)", "result": "92 ± 2.1", "unit": "%"}, {"measurement": "activity at 100 µM", "setting": "[4]; HepG2, 100 μM, 72 h, read-out: Percentage growth of tumor cell lines treated with the tested compounds (±SD)", "result": "82.9 ± 4.1", "unit": "%"}, {"measurement": "activity at 100 µM", "setting": "[5]; MCF7, 100 μM, 72 h, read-out: Percentage growth of tumor cell lines treated with the tested compounds (±SD)", "result": "62.7 ± 4.7", "unit": "%"}, {"measurement": "MIC", "setting": "[6]; [9]", "result": 0.125, "unit": "µg/mL"}, {"measurement": "MIC", "setting": "[6]; [10]", "result": 0.161, "unit": "µM"}, {"measurement": "MIC", "setting": "[7]; [11]", "result": 0.25, "unit": "µg/mL"}, {"measurement": "MIC", "setting": "[7]; [12]", "result": 0.321, "unit": "µM"}, {"measurement": "MIC", "setting": "[8]; 18 h", "result": 0.5, "unit": "µg/mL"}, {"measurement": "MIC", "setting": "[8]", "result": 0.642, "unit": "µM"}]}, {"smiles": "COc1cc(/C=C/C(=O)CC(=O)/C=C/c2ccc(OC(=O)[C@H](N)CCSC)c(OC)c2)ccc1OC(=O)[C@H](N)CCSC.Cl.Cl", "note": "[HCl-D-Met-Cur, (2R,2′R)-1,1′-((((1E,6E)-3,5-dioxohepta-1,6-diene-1,7-diyl)bis(2-methoxy-4,1-phenylene))bis(oxy))bis(4-(methylthio)-1-oxobutan-2-aminium) chloride]", "values": [{"measurement": "Potency (% inhibition of edema relative to that of indomethacin reference standard)", "setting": "[1]", "result": 113}, {"measurement": "Stimulation Index (average ± SD)", "setting": "[2]", "result": "1.01 ± 0.15"}, {"measurement": "IC50", "setting": "[3]; read-out: IC50 (μM) HCT116 (colon)", "result": 46.7, "unit": "µM"}, {"measurement": "IC50", "setting": "[4]; HepG2, read-out: IC50 (μM) HepG2 (liver)", "result": 43.6, "unit": "µM"}, {"measurement": "IC50", "setting": "[5]; MCF7, read-out: IC50 (μM) MCF7 (breast)", "result": 10.2, "unit": "µM"}, {"measurement": "MIC", "setting": "[6]; [9]", "result": 0.25, "unit": "µg/mL"}, {"measurement": "MIC", "setting": "[6]; [10]", "result": 0.355, "unit": "µM"}, {"measurement": "MIC", "setting": "[7]; [11]", "result": 1, "unit": "µg/mL"}, {"measurement": "MIC", "setting": "[7]; [12]", "result": 1.42, "unit": "µM"}, {"measurement": "MIC", "setting": "[8]; 18 h", "result": 1, "unit": "µg/mL"}, {"measurement": "MIC", "setting": "[8]", "result": 1.42, "unit": "µM"}]}]}
